{"source": "patent US11022604B2", "about": "“Dock derived compound against laminin receptor (37 LR) and uses thereof” (Purdue Research Foundation, priority 2017, dated 2021)", "test_system": "c-MYC binding site luciferase reporter in PC-3 cells", "test": "c-MYC binding site luciferase reporter assay", "assay_type": "cell-based", "details": "24 hours", "experimental": "FIG. 9. Luciferase promoter Assay in PC-3 cells. PC-3 cells were treated with 1, 10, 50 μM C3 or DMSO control for 24 hours after a 24 transfection with Myc-Luc and B-Gal plasmid to normalize for transfection efficiency (n=6, mean±SEM). Relative light units calculated by normalizing Myc-Luc signal to B-gal signal. A one-way ANOVA was used for statistical analysis (P<0.05). The linear trend was also significant (pose test for linear trend, p, 0.05).\nWound Healing Assay. PC-3 cells were seeded in 6 well plates at 3×10^5 cells per well in complete media until the cells reached confluency. Three horizontal and three vertical scratches were made in the confluent monolayers using a standard 200 μL pipette tip and cellular debris were removed by washing with 1×DPBS three times. 1×RPMI-1640 supplemented with C3 or DMSO was added and cells were incubated for 48 hours as described previously. […] Images were uploaded and analyzed for scratch geometry using the tscratch program (96). First, global thresholding was performed, then individual images were manually inspected for single image threshold adjustment and scratch geometries were quantified. […] The samples were analyzed using the Dionex UltiMate 3000 RSLC Nano System coupled to the Q Exactive™ HF Hybrid Quadrupole-Orbitrap MS (Thermo Scientific). […]"}
{"molecule": "O=C(c1cc(F)cc2c1OCOC2)N1CCN(C2c3ccccc3-c3ccccc32)CC1", "note": "[Compound C3, [4-(9h-fluoren-9-yl)piperazino](6-fluoro-4h-1,3-benzodioxin-8-yl)methanone]", "values": [{"measurement": "reduction of c-myc binding activity (luciferase reporter)", "setting": "PC-3, 50 μM", "result": 36, "unit": "%"}, {"measurement": "effect on c-myc luciferase reporter activity", "setting": "PC-3, 1 and 10 μM", "result": "no significant effect"}]}
